{"source": "patent US8440460B2", "about": "“Methods for transdifferentiating cells” (The Board of Regents of the University of Texas System, priority 2005, dated 2013)", "key": {"[1]": {"test_system": "normal bone marrow stroma (MSC) CD45-negative cells", "experiment": "FACS analysis of CD45 in treated CD45-negative normal bone marrow stroma cells (MSC)", "type": "cell-based, human", "details": "FIG. 1 schedule", "description": "Human bone marrow stroma cells were grown from the bone marrow of healthy individuals as described above. When the cultures matured and formed homogenous layers of fibroblast-looking cells (termed mesenchymal stem cells; MSC), the cells were trypsinized and analyzed by fluorescence activated cell scanner/sorter (FACS; above) for the presence of the cell surface marker CD45. When the adherent fibroblast-like MSC became CD45-negative, the cells were harvested and transferred to another tissue flask (day 1 of culture).\nGeneration of Bone Marrow Stroma Cell Cultures. […] The culture medium and floating cells were completely aspirated and replaced with fresh tissue culture medium. Upon confluence, cells were exposed to 0.05% trypsin and 0.53 mM EDTA (GIBCO) at 37° C. for 10 min. Following incubation, FCS (v/v) was added for 5 min., the cells were removed from the tissue culture flasks, washed in PBS, transferred to new tissue culture flasks at a low density, and incubated with fresh tissue culture media. The cells were expanded and tested until all hematopoietic elements were no more present and all cells were CD45-negative.\nFor the normal marrow stoma cultures, human bone marrow stroma cells were grown from the bone marrow of healthy individuals as described above. When the cultures had matured and formed homogenous layers of fibroblast-looking cells, the cells were trypsinized and analyzed by fluorescence activated cell scanner/sorter (FACS; above) for the presence of the cell surface marker CD45. When the adherent fibroblast-like cells became CD45-negative, the cells were harvested and transferred to another tissue flask (day 1 of culture)."}, "[2]": {"test_system": "normal bone marrow-derived CD45-negative MSCs", "experiment": "FACS analysis of endothelial markers CD133 and VEGFR-2 in treated bone marrow-derived CD45-negative MSCs", "type": "cell-based, human", "details": "five ng/mL 5-azacytidine days 1 and 4, 100 ng/mL EGF days 7 and 10; FACS day 13", "method": "FIG. 9: Conversion of normal human bone marrow stroma to endothelial progenitor cells by 5-azacytidine and endothelial growth factor (EGF). Normal bone marrow-derived CD45-negative MSCs were used in this experiment and Five ng/mL of 5-azacytidine was added to culture on days 1 and 4, and 100 ng/mL EGF were added on days 7 and 10. The cultures were analyzed on day 13. The cells were stained with anti-CD133 APC and anti-VEGFR-2 PE antibodies and analyzed by FACS as described above. […] Note that the when treated with AZA+EGF 7.34% of MSC become CD133^+VEGFR-2^+.\nIn the next set of experiments the inventors determined whether fibroblasts could be reprogrammed to generate endothelial cells. […] Then, the cells were analyzed for the expression of two endothelial cell markers; the endothelial progenitor marker CD-133, as well as the expression of vascular endothelial growth factor-2 receptor (VEGFR-2).\nIn particular, normal bone marrow-derived CD45-negative mesenchymal cells (ie., bone marrow-derived fibroblastic cells) were used in this experiment and five ng/mL of 5-azacytidine was added to culture on days 1 and 4, and 100 ng/ml EGF were added on days 7 and 10. The cultures were analyzed on day 13. The cells were stained with anti-CD133 APC and anti-VEGFR-2 PE antibodies and analyzed by FACS as described above. […]"}, "HS-5 cells [3]": {"test_system": "HS-5 cells", "experiment": "CFU-GM colony culture assay in methylcellulose", "type": "cell-based, human", "details": "14 days", "method": "FIG. 5: HS-5 cells transdifferentiate into hematopoietic colony-forming cells. Converted (see FIG. 1) and untreated HS-5 cells were harvested from the tissue culture flasks and culture in methylcellulose in a cl0nigtenic assay in the presence of 50 ng/mL GM-CSF, 50 ng/mL SCF and erythropoietin as described above. After 14 days the cultures were examined using an inverted microscope.\nColony-forming unit granulocyte-macrophage (CFU-GM) colony culture assay. The colony-forming unit-granulocyte-macrophage (CFU-GM) clonogenic assay was performed as previously described (49). Briefly, 2×10^5 treated and untreated cells were cultured in 0.8% methylcellulose in IMDM (GIBCO) supplemented with 10% FCS, and 50 ng/ml recombinant human granulocyte-macrophage colony-stimulating factor. […] All cultures were evaluated after 14 days for the number of CFU-GM colonies, defined as a cluster of more than 50 cells containing granulocytes, monocytes and macrophages. To identify the cells comprising the CFU-GM colonies, single colonies were microaspirated at random, transferred to glass slides, dried and stained with Write's stain and microscopically analyzed.\nConverted (see FIG. 1) and untreated HS-5 cells were harvested from the tissue culture flasks and culture in methylcellulose in a cl0nigtenic assay in the presence of 50 ng/mL GM-CSF, 50 ng/mL SCF and erythropoietin as described above. […]"}, "[4]": {"test_system": "HS-5 fibroblast cell line", "experiment": "FACS analysis of hematopoietic cell surface markers (CD45, CD3, CD14, CD19) in treated HS-5 cells", "type": "cell-based, human", "details": "5-azacytidine days 1 and 4, GM-CSF 50 ng/mL and SCF 50 ng/mL days 7 and 10 (FIG. 1 schedule), FACS day 13", "description": "In these studies, HS-5 fibroblast cells were transferred to tissue culture flasks as described herein. 2.5 μg 5-azacytidine were added to the culture at days 1 and 4. Granulocyte macrophage colony-stimulating factor (GM-CSF; 50 ng/mL) and stem cell factor (SCF; 50 ng/mL) were added to the culture on days 7 and 10. The cells were harvested and analyzed for the presence of hematopoietic cell surface markets such as CD45 on day 13.\nThe human bone marrow stroma/MSC cell line HS-5 was obtained from ATCC. These fibroblast-like cells are plastic adherent and grow as a single layer in α-medium (GIBCO, Grand Island, N.Y.) supplemented with 10% fetal calf serum (FCS; Hyclone, Logan, Utah). […] When growth factors were added, α-medium was replaced with Iscove's modified Dulbecco's medium (IMDM; GIBCO).\nFor the HS-5 cultures, HS-5 fibroblast cells were transferred to tissue culture flasks as described. […] The cells were harvested and analyzed for the presence of hematopoietic cell surface markets such as CD45 on day 13.\nIn these studies, HS-5 cells were incubated with or without 5-azacytidine and/or growth factors according to the schedule described in FIG. 1. On day 13 the cells were harvested and analyzed for the presence of cell surface CD45 by FACS. All viable cells were analyzed and the CD45-corresponding isotypic control was used."}, "HS-5 cells [5]": {"test_system": "HS-5 cells", "experiment": "Flow cytometry of 5-methylcytidine as a marker of global DNA methylation in HS-5 cells", "type": "cell-based, human", "details": "5-azacytidine 2.5 uM overnight", "method": "FIG. 3: Azacytidine hypomethylates HS-5 cells. […] HS-5 cells were treated w/ and w/o 5-azacytidine 2.5 uM overnight. After incubation the cells were harvested and washed in PBS. The cells were then fixed and permeabilized using the BD Cytofix/Cytoperm kit (BD Biosciences, San Diego Calif.) as per the kit instructions. After fixation and permeabilization the cells were stained using mouse anti 5-methylcytadine (Serotec Inc., Raleigh N.C.) for 30 minutes. After washing the cells 3 times in the Permwash buffer provided with the BD kit, the mouse antibody was then detected using an RPE labeled rabbit anti mouse IgG (Serotec) for 30 minutes. After 3 additional wash steps, the cells were resuspended in staining buffer (as per the BD kit) and analyzed on a FACSCaliber flow cytometer (BD Immunnocytometry Systems, La Jolla Calif.) for any decrease in 5-methylcytidine. […]\nHS-5 cells were treated w/ and w/o 5-azacytidine 2.5 uM overnight. […] After washing the cells 3 times in the Permwash buffer provided with the BD kit, the mouse antibody was then detected using an RPE labeled rabbit anti mouse IgG (Serotec) for 30 minutes. After 3 additional wash steps, the cells were resuspended in staining buffer (as per the BD kit) and analyzed on a FACSCaliber flow cytometer (BD Immunnocytometry Systems, La Jolla Calif.) for any decrease in 5-methylcytidine. […]"}, "[6]": {"test_system": "normal human foreskin fibroblasts", "details": "FIG. 2 schedule, FACS day 6"}}, "note": "Values joined by “and” are separate entries in the source; they are usually repeats but may differ in a detail not shown here. Equal values may be shown once.", "data": [{"molecule": "Nc1ncn([C@@H]2O[C@H](CO)[C@@H](O)[C@H]2O)c(=O)n1", "note": "[5-azacytidine]", "values": [{"measurement": "CD45 expression (in words)", "setting": "[1]; FACS day 13", "value": "slightly increased"}, {"measurement": "CD45 expression (in words)", "setting": "[1]; FACS day 13, listed as 5-Azacytidine", "value": "unable to give rise to a significant number of blood cells"}, {"measurement": "CD45 expression (in words)", "setting": "[1]; FACS day 13, listed as 5-azcytidine", "value": "remained CD45-negative"}, {"measurement": "CD133+VEGFR-2+ cells", "setting": "[2]", "value": 4.14, "unit": "%"}, {"measurement": "microscopic evaluation of the colonies", "setting": "HS-5 cells [3]", "value": "characteristics of mixed granulocyte macrophage lineage"}, {"measurement": "cells expressing CD45", "setting": "[4]", "value": "3.5% and 11%"}, {"measurement": "effect on 5-methylcytidine (DNA methylation)", "setting": "HS-5 cells [5]", "value": "hypomethylates"}, {"measurement": "conversion into CD45-positive cells (in words)", "setting": "[6]", "value": "converted them into CD45-positive cells"}, {"measurement": "lateral/forward scatter analysis of the cell population", "setting": "[6]", "value": "generates a new transdifferentiated (“differentiated”) population of cells"}]}, {"molecule": "EGF: epidermal growth factor", "values": [{"measurement": "CD133+VEGFR-2+ cells", "setting": "[2]", "value": "< 1.5", "unit": "%"}]}]}
